# What was measured:
# [1] = target: T1, androgen receptor (AR) (Mus musculus, UniProt P19091); assay: SC-3 cell proliferation assay, AR agonistic activity (compound alone); format: cell-based, murine; settings: for EC50: SC-3 cells, induction of cell proliferation by single treatment of the compound, 0.01 μM to 10 μM, read-out: EC50 (agonist); for effect on SC-3 cell growth in the absence of dihydrotestosterone (AR agonistic activity): androgen-dependent SC-3 cells
# T1 construct: SC-3 cells were cultured in MEMα (Fujifilm Wako Co.) supplemented with 2 %; endogenous in cells; host or cells: SC-3
# T1 sequence (P19091 1-899): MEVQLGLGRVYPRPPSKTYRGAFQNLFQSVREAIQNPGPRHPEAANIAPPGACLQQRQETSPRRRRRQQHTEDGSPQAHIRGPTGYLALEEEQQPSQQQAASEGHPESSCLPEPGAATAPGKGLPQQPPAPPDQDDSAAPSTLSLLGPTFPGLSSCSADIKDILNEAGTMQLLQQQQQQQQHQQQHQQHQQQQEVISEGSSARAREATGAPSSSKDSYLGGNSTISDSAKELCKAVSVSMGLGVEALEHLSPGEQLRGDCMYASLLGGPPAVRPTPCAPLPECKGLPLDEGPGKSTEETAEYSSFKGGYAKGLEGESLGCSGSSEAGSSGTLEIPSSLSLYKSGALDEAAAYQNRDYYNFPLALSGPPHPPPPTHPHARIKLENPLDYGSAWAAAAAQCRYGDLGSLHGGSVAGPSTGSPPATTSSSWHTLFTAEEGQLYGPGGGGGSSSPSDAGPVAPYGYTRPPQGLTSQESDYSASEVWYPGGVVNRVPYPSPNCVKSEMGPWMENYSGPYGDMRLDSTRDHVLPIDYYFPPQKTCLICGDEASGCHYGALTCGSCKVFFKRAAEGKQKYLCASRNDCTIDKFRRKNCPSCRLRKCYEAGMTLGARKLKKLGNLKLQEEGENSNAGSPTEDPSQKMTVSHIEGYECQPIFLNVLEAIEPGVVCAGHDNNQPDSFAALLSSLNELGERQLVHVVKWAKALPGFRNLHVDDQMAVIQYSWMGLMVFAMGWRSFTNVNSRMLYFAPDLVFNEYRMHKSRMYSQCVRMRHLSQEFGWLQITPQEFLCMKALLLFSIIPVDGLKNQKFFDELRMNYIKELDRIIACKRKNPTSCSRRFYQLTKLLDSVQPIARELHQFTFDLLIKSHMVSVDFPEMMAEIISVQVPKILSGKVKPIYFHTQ
# [2] = target: T2, PR ligand-binding domain (LBD) (Homo sapiens, UniProt P06401); assay: PR LBD competitive binding assay (fluorescence polarization, PolarScreen kit); settings: fluorescence polarization competition, 100 nM to 32 μM, Figure 5
# T2 construct: purchased Invitrogen A15905
# T2 sequence (P06401 679-913 limits assumed): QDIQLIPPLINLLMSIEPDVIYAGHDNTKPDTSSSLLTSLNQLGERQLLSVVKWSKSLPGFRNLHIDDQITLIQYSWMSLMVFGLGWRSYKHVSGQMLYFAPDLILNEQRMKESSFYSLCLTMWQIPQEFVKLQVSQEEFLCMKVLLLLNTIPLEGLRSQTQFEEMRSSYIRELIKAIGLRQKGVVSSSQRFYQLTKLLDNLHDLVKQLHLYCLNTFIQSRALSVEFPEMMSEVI
# Protocol: The PR agonistic and antagonistic activities of the synthesized phosphine–borane derivatives were evaluated using an alkaline phosphatase assay with the T47D human breast cancer cell line. […] The basal alkaline phosphatase activity was also not affected by the tested compounds alone. […] The PR antagonistic activities of the compounds were assessed in the presence of 1 nM of P4 (5). We also calculated the molecular volume of each compound to investigate the structure–activity relationship (SAR). Table 2 summarizes the PR antagonistic activity and calculated volumes of the synthesized compounds. […] We investigated the binding affinity of the compounds toward the PR ligand-binding domain (LBD) using a fluorescence polarization assay system. […] We also investigated the activity of compounds 28 and 34 toward the androgen receptor (AR) by means of cell-proliferation promoting/inhibitory activity toward androgen-dependent SC-3 cells. […].
# PR binding affinity was assessed using a PolarScreen Progesterone Receptor Competitor Assay Kit, Green (Invitrogen, Waltham, MA, USA, A15905) based on the manufacturer’s instruction. […] The fluorescence polarization value (mP) was measured at 485 nm/535 nm (excitation/emission) on a DTX 880 Multimode Detector (Beckman Coulter).
# [3] = target: T1, androgen receptor (AR); assay: SC-3 cell proliferation assay, AR antagonistic activity (1 nM DHT-promoted proliferation); format: cell-based, murine; settings: for effect on SC-3 cell growth in the presence of dihydrotestosterone (AR antagonistic activity): androgen-dependent SC-3 cells; for IC50: read-out: IC50 (antagonist)
Compound,EC50 [1] [µM],effect on SC-3 cell growth in the absence of dihydrotestosterone (AR agonistic activity) [1],binding affinity toward PR LBD (in words) [2],effect on SC-3 cell growth in the presence of dihydrotestosterone (AR antagonistic activity) [3],IC50 [3] [µM],melting point [°C]
"C[P+](C)(C)[BH2-]c1ccc(C(F)(F)F)cc1 [Compound 28, B-4-(Trifluoromethyl)phenyl Trimethylphosphine–Borane]",> 10,did not affect cell growth,did not show the affinity,did not affect cell growth,> 10,
"FC(F)(F)c1ccc([BH2-][P+](C2CC2)(C2CC2)C2CC2)cc1 [Compound 34, B-4-(Trifluoromethyl)phenyl Tricyclopropylphosphine–Borane]",> 10,did not affect cell growth,exhibited significant affinity toward PR LBD,did not affect cell growth,> 10,72.6 to 72.8

# From publication PMC11013038, “Design, Synthesis, and Evaluation of B-(Trifluoromethyl)phenyl Phosphine–Borane Derivatives as Novel Progesterone Receptor Antagonists” (Molecules, 2024)
